The source of these data is ChEMBL document CHEMBL1155414, “Identification of a urea bioisostere of a triazole oxytocin antagonist” (Bioorg Med Chem Lett, 2010).

Chain of Vasopressin V2 receptor (Homo sapiens) (P30518 whole entry): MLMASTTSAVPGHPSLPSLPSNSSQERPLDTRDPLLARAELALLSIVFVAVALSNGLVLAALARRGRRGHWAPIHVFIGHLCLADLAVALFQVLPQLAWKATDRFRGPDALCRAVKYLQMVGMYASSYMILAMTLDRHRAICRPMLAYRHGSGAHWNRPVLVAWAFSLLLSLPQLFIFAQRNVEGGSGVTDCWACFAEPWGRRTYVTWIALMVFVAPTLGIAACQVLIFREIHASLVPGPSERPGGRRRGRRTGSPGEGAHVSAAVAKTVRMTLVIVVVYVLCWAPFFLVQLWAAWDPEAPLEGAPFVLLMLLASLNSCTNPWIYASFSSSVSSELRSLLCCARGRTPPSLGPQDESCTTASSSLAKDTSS

The first test has as its target T1, Oxytocin receptor (Homo sapiens, UniProt P30559).
T1 sequence (P30559 whole entry): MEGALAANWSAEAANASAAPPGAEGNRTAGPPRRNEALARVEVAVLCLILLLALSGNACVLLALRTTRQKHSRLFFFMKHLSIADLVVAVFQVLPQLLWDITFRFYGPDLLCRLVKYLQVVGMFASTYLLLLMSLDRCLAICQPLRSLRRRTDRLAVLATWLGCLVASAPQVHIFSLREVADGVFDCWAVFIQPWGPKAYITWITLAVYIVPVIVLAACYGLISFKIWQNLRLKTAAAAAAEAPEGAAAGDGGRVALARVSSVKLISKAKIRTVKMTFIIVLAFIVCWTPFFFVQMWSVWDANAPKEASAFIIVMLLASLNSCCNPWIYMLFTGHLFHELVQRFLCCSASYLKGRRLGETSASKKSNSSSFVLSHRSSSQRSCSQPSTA
The test can be described thus: Antagonist activity at human oxytocin receptor expressed in CHO cells by beta lactamase assay. In kind it is functional, cell-based.
In general, Ki refers to a measure of affinity in units of concentration, obtained from inhibition or displacement. As for `COc1ccc(N(C)C(=O)N2CC(Oc3ccc(F)cc3Cl)C2)cn1`, the inhibitory constant (Ki) was determined as 67.2 nM.
On the same count and under the same terms, the result for `COc1ccc(N(C)C(=O)N2CC(Oc3cc(F)cc(F)c3C)C2)cn1` reads 237 nM; that for `COc1ccc(N(C)C(=O)N2CC(Oc3ccc(F)cc3C)C2)cn1`, 112 nM; that for `COc1ccc(N(C)C(=O)N2CC(Oc3cccc(F)c3C)C2)cn1`, 159 nM.
On the same count and under the same terms, with `CCN(C(=O)N1CC(Oc2ccc(F)cc2Cl)C1)c1ccc(OC)nc1` the figure was 48.4 nM; with `CCN(C(=O)N1CC(Oc2cc(F)cc(F)c2C)C1)c1ccc(OC)nc1`, 36.7 nM.
Same read-out and setting: with `CCN(C(=O)N1CC(Oc2cccc(F)c2C)C1)c1ccc(OC)nc1` the figure was 13.9 nM; with `CCN(C(=O)N1CC(Oc2ccc(F)cc2C)C1)c1ccc(OC)nc1`, 43 nM; with `COc1ccc(-n2c(C)nnc2N2CC(Oc3cccc(F)c3C)C2)cn1`, 19.7 nM.
The compound `COc1ccc(-n2c(C)nnc2N2CC(Oc3cc(F)cc(F)c3C)C2)cn1` registered an inhibitory constant (Ki) of 41.4 nM.

Another test deals with Vasopressin V1a receptor (Homo sapiens, UniProt P37288). The test can be described thus: Antagonist activity at human vasopressin V1A receptor. It counts as functional.
Chain of Vasopressin V1a receptor (P37288 whole entry): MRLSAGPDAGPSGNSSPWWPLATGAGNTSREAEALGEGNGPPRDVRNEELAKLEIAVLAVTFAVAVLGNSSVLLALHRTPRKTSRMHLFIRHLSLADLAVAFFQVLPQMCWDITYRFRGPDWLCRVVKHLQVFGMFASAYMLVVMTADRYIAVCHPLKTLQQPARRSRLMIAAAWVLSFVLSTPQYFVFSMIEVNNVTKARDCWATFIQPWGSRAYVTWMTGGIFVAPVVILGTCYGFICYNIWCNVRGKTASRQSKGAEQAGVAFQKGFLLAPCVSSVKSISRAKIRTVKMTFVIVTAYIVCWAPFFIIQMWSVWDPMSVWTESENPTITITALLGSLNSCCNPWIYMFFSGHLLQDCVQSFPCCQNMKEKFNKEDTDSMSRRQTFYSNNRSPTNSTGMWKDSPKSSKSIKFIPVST
`COc1ccc(N(C)C(=O)N2CC(Oc3ccc(F)cc3Cl)C2)cn1` had a Ki of 0.779 µM.
Same read-out and setting: with `COc1ccc(N(C)C(=O)N2CC(Oc3cc(F)cc(F)c3C)C2)cn1` the figure was > 4.2 µM; with `COc1ccc(N(C)C(=O)N2CC(Oc3ccc(F)cc3C)C2)cn1`, 1.3 µM.
For `COc1ccc(N(C)C(=O)N2CC(Oc3cccc(F)c3C)C2)cn1`, the Ki was > 4.2 µM.
Regarding `CCN(C(=O)N1CC(Oc2cccc(F)c2C)C1)c1ccc(OC)nc1`, the Ki is > 4.2 µM.
`COc1ccc(-n2c(C)nnc2N2CC(Oc3cccc(F)c3C)C2)cn1`: the inhibition constant (Ki) is > 4.2 µM.
Still for that read-out and setting: with `COc1ccc(-n2c(C)nnc2N2CC(Oc3cc(F)cc(F)c3C)C2)cn1` the figure was > 4.2 µM.

A further test addresses T2, Vasopressin V1b receptor (Homo sapiens) (UniProt P47901).
T2 sequence (whole entry): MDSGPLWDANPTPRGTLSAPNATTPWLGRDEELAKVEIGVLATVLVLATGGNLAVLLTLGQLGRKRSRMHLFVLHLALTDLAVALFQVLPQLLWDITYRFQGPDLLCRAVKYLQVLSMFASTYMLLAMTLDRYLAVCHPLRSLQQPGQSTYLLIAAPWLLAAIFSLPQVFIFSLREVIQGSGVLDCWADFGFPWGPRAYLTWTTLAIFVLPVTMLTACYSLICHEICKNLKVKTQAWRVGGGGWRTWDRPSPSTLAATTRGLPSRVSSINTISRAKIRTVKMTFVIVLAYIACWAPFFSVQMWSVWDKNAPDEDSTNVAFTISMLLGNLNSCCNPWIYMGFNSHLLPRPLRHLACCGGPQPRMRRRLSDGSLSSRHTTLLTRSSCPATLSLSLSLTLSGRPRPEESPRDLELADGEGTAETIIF
The test can be described thus: Antagonist activity at human vasopressin V1B receptor at 10 uM. It counts as functional. Details: scale not given: the % may be the effect or the level left.
Turning to `CCN(C(=O)N1CC(Oc2cccc(F)c2C)C1)c1ccc(OC)nc1`, the Activity is < 10%.

A further test addresses Vasopressin V2 receptor (Homo sapiens) (UniProt P30518). The test is described as follows: Antagonist activity at human vasopressin V2 receptor at 10 uM. It counts as functional. Also on record: scale not given: the % may be the effect or the level left.
Consider `CCN(C(=O)N1CC(Oc2cccc(F)c2C)C1)c1ccc(OC)nc1`, for which the Activity is < 10%.
